{
  "source": "patent US20220257622A1",
  "about": "“COMPOSITION FOR MAINTAINING LACTOBACILLUS DOMINANCE” (Kimberly-Clark Worldwide, Inc., priority 2015, published 2022)",
  "data": [
    {"test_system": "L. crispatus and E. coli", "test": "Therapeutic effect protocol: L. crispatus / E. coli co-culture in LAPT-g medium with carbon source", "assay_type": "cell-based", "conditions": "therapeutic agent (carbon source) 1 wt/vol %; co-culture incubated anaerobically at 37° C.; measured 36 hours after inoculation", "protocol": "Colonies of L. crispatus and E. coli were prepared as follows. A colony of L. crispatus was transferred to 7 ml MRS broth and incubated anaerobically (using BD GasPak EZ anaerobe container system with indicator) at 37° C. without shaking for 18-20 hours. A colony of E. coli was transferred to 5m1 TSB broth and incubated aerobically (shaking at 100 rpm) at 37° C. for 18-20 hours.\nColonies were then inoculated as follows. Bacterial cultures were gently vortexed and 1 mL of each culture was transferred to a corresponding 2.0 mL micro-centrifuge tube and then centrifuged for two minutes at 14,500 rpm. The cultural supernatant was removed and the cell pellet was re-suspended in 1 mL of 0.95% (wt/vol %) saline. The re-suspended colony was then centrifuged for two minutes at 14,500 rpms and the supernatant was removed. For L. crispatus, the pellet was re-suspended in 1 mL of 0.95% saline to achieve ˜10^7 -10^8 cfu/mL. For E. coli the pellet was re-suspended in 1 mL of 0.95% saline to achieve ˜10^8-10^9 cfu/mL.\nMedia were prepared as follows.\nAll of the ingredients in Table 1 were combined and the pH was adjusted to 6.5. The media were then autoclaved for 20 minutes at 125° C. To evaluate the effect of various saccharides and organic acids (noted as carbon sources below), the following samples were prepared:\nFive milliliters (5 mL) of each medium was transferred to a test tube in duplicates for subsequent inoculation. A master mixture of L. crispatus and E. coli, prepared as described above, was prepared in 1,000:1 ratio. Each (5 ml) test tube was inoculated with the master mixture to give 10^5-10^6 total CFU L. crispatus and 100-1,000 total CFU E. coli per tube.\nTo establish a negative control, one tube was vortexed and 100 μL was removed to determine the initial cell concentrations by serial dilutions and plating (2 plates per dilution). L. crispatus is selected on MRS agar plates incubated anaerobically at 37° C. for two days. E. coli is selected on TSA plates incubated aerobically at 37° C. for one day. The co-cultures were incubated in an anaerobic container with BD GasPaks at 37° C. for 36 hours.\nThe effect of the carbon source on the ratio of L. crispatus to E. coli was measured 36 hours after inoculation. The co-culture tube was vortexed and 100 μL was removed to determine the final cell concentrations by serial dilutions and plating (2 plates per dilution). L. crispatus is selected on MRS agar plates incubated anaerobically at 37° C. for two days. E. coli is selected on TSA plates incubated aerobically at 37° C. for one day.\nThe therapeutic effect of the formulation was then measured using the assay described above in the Test Methods section above. The therapeutic effect is summarized below as the ratio of L. crispatus to E. coli.", "values": [
      {"compound": "O=CC[C@H](O)[C@H](O)CO", "note": "[Sample 2, 2-Deoxy-D-Ribose]", "L. crispatus/ E. coli ratio": 161},
      {"compound": "OC[C@@H](O)[C@@H](O[C@H]1O[C@H](CO)[C@@H](O)[C@H](O)[C@H]1O)[C@H](O)[C@@H](O)CO", "note": "[Sample 4, Maltitol]", "L. crispatus/ E. coli ratio": 202},
      {"compound": "OC[C@H]1O[C@@](CO)(O[C@H]2O[C@H](CO)[C@@H](O[C@H]3O[C@H](CO)[C@@H](O)[C@H](O)[C@H]3O)[C@H](O)[C@H]2O)[C@@H](O)[C@@H]1O", "note": "[Sample 3, Erlose]", "L. crispatus/ E. coli ratio": 32.1},
      {"compound": "Maltotriose [Sample 5]", "L. crispatus/ E. coli ratio": 535},
      {"compound": "OC[C@H]1O[C@@](CO)(OC[C@@]2(O[C@H]3O[C@H](CO)[C@@H](O)[C@H](O)[C@H]3O)O[C@H](CO)[C@@H](O)[C@@H]2O)[C@@H](O)[C@@H]1O", "note": "[Sample 1, 1-Kestose]", "L. crispatus/ E. coli ratio": 640},
      {"compound": "Palatinose [Sample 6]", "L. crispatus/ E. coli ratio": 600}
    ]}
  ]
}
